9 compounds from patent publication US6114334A, “Piperazine derivatives as therapeutic agents” (Knoll Aktiengesellschaft, priority 1995, dated 2000) can be followed below.

Where a name gives a salt, the structure may show the parent alone.

One experiment addresses D2 dopamine receptors (Rattus norvegicus, UniProt P61169). Kind of experiment: inhibition of tritiated (S)-sulpiride binding to D2 dopamine receptors in vitro. Details: species or system rat (male Charles River CD, striatal tissue). The following applies: rat striatum, tritiated (S)-sulpiride 1 nM, 4° C., 40 min.
The target of another experiment is T1, α2A-adrenoceptors (Homo sapiens, UniProt P08913).
T1 construct: Human cerebral cortex obtained at post-mortem; from tissue; host or cells: human cerebral cortex, post-mortem
T1 sequence (P08913 1-465): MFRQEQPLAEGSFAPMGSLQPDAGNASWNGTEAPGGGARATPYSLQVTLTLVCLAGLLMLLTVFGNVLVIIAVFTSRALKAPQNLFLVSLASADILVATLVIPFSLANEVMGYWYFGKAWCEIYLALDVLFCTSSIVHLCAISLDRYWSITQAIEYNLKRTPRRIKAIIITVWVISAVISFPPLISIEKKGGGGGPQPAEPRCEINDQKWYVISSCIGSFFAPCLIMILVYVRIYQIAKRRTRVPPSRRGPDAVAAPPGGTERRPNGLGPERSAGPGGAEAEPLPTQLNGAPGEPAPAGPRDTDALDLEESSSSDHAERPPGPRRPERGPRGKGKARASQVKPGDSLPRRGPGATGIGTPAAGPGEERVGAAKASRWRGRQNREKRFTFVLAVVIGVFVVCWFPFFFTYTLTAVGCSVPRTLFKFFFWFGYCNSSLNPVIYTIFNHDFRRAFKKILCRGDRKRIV
Description: inhibition of tritiated RX 821002 binding to α2A-adrenoceptors in vitro. Details: species or system human (cerebral cortex post-mortem). The following applies: human cerebral cortex; for inhibition at 1 µM: 10^-6 M, [3H]RX 821002, read-out: % displacement at 10^-6 M, α2A. As to the method: Human cerebral cortex obtained at post-mortem was homogenised in ice-cold 0.25M sucrose (1:30 w/v) and centrifuged at 1,000 g at 4° C. for 12 minutes. The supernatant was stored on ice and the pellet was rehomogenised in 0.25M sucrose (1:15 w/v) and centrifuged at 850 g at 4° C. for 12 minutes. Combined supernatants were diluted with 5 mM Tris-HCl (pH 7.5) containing 5 mM ethylenediamine tetraacetic acid (EDTA), readjusted to pH 7.5 (at 25° C.) with 1M sodium hydroxide to 1:80 w/v, and centrifuged at 11,000 g at 4° C. for 10 minutes. The resulting pellet was resuspended in 50 mM Tris-HCl (pH 7.5) containing 5.68 mM L-ascorbic acid and 0.5 mM EDTA, readjusted to pH 7.5 (at 25° C.) with 1M sodium hydroxide to 1:80 w/v, and centrifuged at 11,000 g for 10 minutes. The pellet was stored at -80° C. On the day of the assay the pellet was thawed, resuspended in 50 mM Tris-HCl (pH 7.5) containing 5.68 mM L-ascorbic acid and 5 mM EDTA to 1:80 w/v and centrifuged at 11,000 g for 10 minutes. The final pellet was resuspended in 50 mM Tris-HCl (pH 7.5) containing 5.68 mM L-ascorbic acid and 5 mM EDTA (equivalent to 25 mg wet weight of tissue/ml).
Aliquots (400 μl; equivalent to 10 mg wet weight of tissue/tube) of this suspension were added to tubes containing the ligand (50 μl; 0.2 nM) and distilled water (50 μl; total binding) or phentolamine (50 μl; 50 μM; non-specific binding) or test compound (50 μl; at a single concentration of 10^-6 M or at 10 concentrations ranging from 10^-11 -10^-3 M). The ligand was tritiated RX 821002 (2-(2-methoxy-1,4-[6,7(n)-^3 H]benzodioxan-2-yl)-2-imidazoline) and the mixture was incubated at 0° C. for 75 minutes before the incubation was terminated by rapid filtration.
The filters were washed with ice-cold Tris-HCl buffer and dried. The filters were punched out into vials, scintillation fluid added and radioactivity determined by liquid scintillation counting. The percentage displacement of specific binding of the tritiated ligand was calculated for the single concentration (10^-6 M) of test compound. Displacement curves were then produced for those compounds which displaced ≥50% of specific binding of the tritiated ligand at 10^-6 M using a range of concentrations of the compound. The concentration which gave 50% inhibition of specific binding (IC50) was obtained from the curve. The inhibition coefficient Ki was then calculated using the formula [formula] in which [ligand] is the concentration of the tritiated ligand used and KD is the equilibrium dissociation constant for the ligand.

In a further experiment the target is T2, 5-HT1A receptors (Rattus norvegicus, UniProt P19327).
T2 sequence (P19327 1-422): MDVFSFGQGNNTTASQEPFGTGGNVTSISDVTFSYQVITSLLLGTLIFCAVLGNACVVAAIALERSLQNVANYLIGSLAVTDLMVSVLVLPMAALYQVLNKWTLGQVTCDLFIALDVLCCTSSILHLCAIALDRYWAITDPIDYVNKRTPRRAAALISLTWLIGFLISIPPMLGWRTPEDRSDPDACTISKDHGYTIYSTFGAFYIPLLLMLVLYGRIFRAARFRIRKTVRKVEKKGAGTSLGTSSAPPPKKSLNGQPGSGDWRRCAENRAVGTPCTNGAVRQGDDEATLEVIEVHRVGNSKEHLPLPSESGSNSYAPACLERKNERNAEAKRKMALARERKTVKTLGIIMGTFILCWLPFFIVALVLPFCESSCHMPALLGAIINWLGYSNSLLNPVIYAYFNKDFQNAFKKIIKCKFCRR
Description: inhibition of [3H]8-OH-DPAT binding to 5-HT1A receptors in vitro. Also noted: species or system rat (male Sprague-Dawley, hippocampal tissue). The following applies: rat hippocampus, [3H]8-OH-DPAT 2 nM, 25° C., 30 min.

Another experiment addresses α1-adrenoceptors. Kind of experiment: inhibition of 7-methoxy-[3H]prazosin binding to α1-adrenoceptors in vitro. Also noted: species or system rat (male Charles River CD, whole cortical tissue). Particulars: rat whole cortex, 30 min; for Ki: 7-methoxy-[3H]prazosin 0.1 nM, 30° C. As to the method:
Whole cortical tissue from the brains of male Charles River CD rats weighing between 150-250 g were homogenised in ice-cold 50 mM Tris-HCl, pH 7.6 (at 25° C.; 1:40 w/v) and centrifuged at 1000 g at 4° C. for 10 minutes. The supernatant was centrifuged at 30,000 g at 4° C. for 10 minutes. The pellet was rehomogenised in 50 mM Tris-HCl, pH 7.6 (1:40 w/v) and centrifuged at 30,000 g at 4° C. for 10 minutes. The final pellet was resuspended in 50 mM Tris-HCl, pH 7.6 (equivalent to 12.5 mg wet weight of tissue/ml) and used immediately in the binding assay. Aliquots (400 μl; equivalent to 5 mg wet weight of tissue/tube) of this suspension were added to tubes containing the ligand (50 μl; 0.1 nM) and distilled water (50 μl; total binding) or phentolamine (50 μl; 5 μM; non-specific binding) or test compound (50 μl; at a single concentration of 10^-6 M or at 10 concentrations ranging from 10^-11 -10^-3 M). The ligand was 7-methoxy-[^3 H]prazosin and the mixture was incubated at 30° C. for 30 minutes before the incubation was terminated by rapid filtration. The filters were washed with ice-cold Tris-HCl buffer and dried. The filters were punched out into vials, scintillation fluid added and radioactivity determined by liquid scintillation counting. The percentage displacement of specific binding of the tritiated ligand was calculated for the single concentration (10^-6 M) of test compound. […] The concentration which gave 50% inhibition of specific binding (IC50) was obtained from the curve. The inhibition coefficient Ki was then calculated using the formula [formula] in which [ligand] is the concentration of the tritiated ligand used and KD is the equilibrium dissociation constant for the ligand.

The target in another experiment is T3, α2D-adrenoceptors (Rattus norvegicus, UniProt P22909).
T3 sequence (P22909 1-465): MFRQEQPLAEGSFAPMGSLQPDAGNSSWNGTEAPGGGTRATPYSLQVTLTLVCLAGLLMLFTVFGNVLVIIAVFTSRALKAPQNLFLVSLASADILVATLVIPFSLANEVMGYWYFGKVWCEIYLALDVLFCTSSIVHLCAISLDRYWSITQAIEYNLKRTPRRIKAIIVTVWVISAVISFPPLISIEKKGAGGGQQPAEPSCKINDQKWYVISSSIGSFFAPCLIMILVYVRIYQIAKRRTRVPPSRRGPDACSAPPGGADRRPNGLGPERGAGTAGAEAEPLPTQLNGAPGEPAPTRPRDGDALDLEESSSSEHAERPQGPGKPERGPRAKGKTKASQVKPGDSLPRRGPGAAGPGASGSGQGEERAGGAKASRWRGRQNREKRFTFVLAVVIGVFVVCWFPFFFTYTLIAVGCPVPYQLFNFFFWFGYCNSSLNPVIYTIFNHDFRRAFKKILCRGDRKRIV
Description: inhibition of tritiated idazoxan binding to α2D-adrenoceptors in vitro. Details: species or system rat (male Charles River CD, frontal cortical tissue). Particulars: rat frontal cortex; for inhibition at 1 µM: 10^-6 M, [3H]idazoxan, read-out: % displacement at 10^-6 M, α2D; for Ki: [3H]idazoxan 1 nM, 0° C., 75 min.

D2 dopamine receptors, sequence (P61169 whole entry): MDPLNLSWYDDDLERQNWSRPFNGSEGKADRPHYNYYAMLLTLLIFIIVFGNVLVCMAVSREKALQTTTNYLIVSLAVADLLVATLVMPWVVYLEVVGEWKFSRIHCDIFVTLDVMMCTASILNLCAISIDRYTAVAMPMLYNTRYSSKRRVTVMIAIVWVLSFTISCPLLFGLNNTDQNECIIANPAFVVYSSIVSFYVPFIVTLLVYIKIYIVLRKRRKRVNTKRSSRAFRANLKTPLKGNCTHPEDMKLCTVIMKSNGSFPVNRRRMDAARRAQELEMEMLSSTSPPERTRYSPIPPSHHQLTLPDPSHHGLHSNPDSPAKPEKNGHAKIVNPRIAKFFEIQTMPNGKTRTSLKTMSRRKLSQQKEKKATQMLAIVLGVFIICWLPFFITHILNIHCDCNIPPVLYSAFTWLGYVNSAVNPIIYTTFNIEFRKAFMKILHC

As for `Cn1nc(C2CCC2)c(CN2CCN(c3cccc4c3OCCO4)CC2)c1N` [Example 30, 5-Amino-4-[4-(1,4-benzodioxan-5-yl)piperazin-1-ylmethyl]-3-cyclobutyl-1-methylpyrazole], the values for the Ki on D2 dopamine receptors, on 5-HT1A receptors and at α1-adrenoceptors were 265 nM, 18 nM and 64 nM, respectively. The figures for the inhibition at 1 µM at α2A-adrenoceptors and on α2D-adrenoceptors were 99% and 94%, respectively.

On to `CC(C)(C)n1nc(C2CC2)c(CN2CCN(c3cccc4c3OCCO4)CC2)c1N` [Example 24, 5-Amino-4-[4-(1,4-benzodioxan-5-yl)piperazin-1-ylmethyl]-1-tert-butyl-3-cyclopropylpyrazole], for which the inhibition constant (Ki) at D2 dopamine receptors was 422 nM; on α2A-adrenoceptors ([3H]RX 821002 0.2 nM, 0° C., 75 min), 39 nM; at 5-HT1A receptors, 21 nM; at α1-adrenoceptors it was 177 nM; at α2D-adrenoceptors it was 13 nM.

Consider `Cn1nc(C2CC2)c(CN2CCN(c3cccc4c3OCCO4)CC2)c1N` [Example 18, 5-Amino-4-[4-(1,4-benzodioxan-5-yl)piperazin-1-ylmethyl]-3-cyclopropyl-1-methylpyrazole 2.3 hydrochloride], for which, at α2A-adrenoceptors, the inhibition at 1 µM is 98%. Moreover, the inhibitory constant (Ki) was found to be 27 nM on 5-HT1A receptors, 204 nM at α1-adrenoceptors (hydrochloride) and 69 nM on α2D-adrenoceptors.

As to `CC(C)(C)c1nn(-c2ccccc2)c(N)c1CN1CCN(c2cccc3c2OCCO3)CC1` [Example 22, 5-Amino-4-[4-(1,4-benzodioxan-5-yl)piperazin-1-ylmethyl]-3-tert-butyl-1-phenylpyrazole], the Ki at D2 dopamine receptors was above 500 nM; at 5-HT1A receptors, 29 nM; on α1-adrenoceptors, above 500 nM; on α2D-adrenoceptors, above 500 nM. In addition, the inhibition at 1 µM on α2A-adrenoceptors was found to be 66%.

In the case of `Cn1c(N)c(CN2CCN(c3cccc4ccoc34)CC2)c(=O)n1-c1ccccc1` [Example 7, 3-Amino-4-[4-(7-benzo[b]furanyl)piperazin-1-ylmethyl]-2-methyl-1-phenyl-3-pyrazolin-5-one], the inhibitory constant (Ki) at D2 dopamine receptors is 177 nM; at 5-HT1A receptors it was 24 nM; on α1-adrenoceptors, 19 nM; on α2D-adrenoceptors, 165 nM. Also, at α2A-adrenoceptors, the inhibition at 1 µM was 91%.

On to `COc1ccc(-n2nc(C3CC3)c(CN3CCN(c4cccc5c4OCCO5)CC3)c2N)cc1` [Example 17, 5-Amino-4-[4-(1,4-benzodioxan-5-yl)piperazin-1-ylmethyl]-3-cyclopropyl-1-(4-methoxyphenyl)pyrazole], for which the inhibition constant Ki at D2 dopamine receptors is above 500 nM; at 5-HT1A receptors it was 59 nM; on α1-adrenoceptors, 27 nM; at α2D-adrenoceptors, 61 nM. The inhibition at 1 µM on α2A-adrenoceptors was found to be 86%.

As for `Cc1ccccc1N1CCN(Cc2c(N)n(C)n(-c3ccccc3)c2=O)CC1` [Example 3, 3-Amino-2-methyl-4-[4-(2-methylphenyl)piperazin-1-ylmethyl]-1-phenyl-3-pyrazolin-5-one], the Ki at D2 dopamine receptors and on 5-HT1A receptors was above 500 nM throughout. The inhibition at 1 µM at α2A-adrenoceptors amounted to 98%; on α2D-adrenoceptors it was 56%. Further, the “% displacement at 10^-6 M, α1” value with α1-adrenoceptors (10^-6 M, 7-methoxy-[3H]prazosin, 1 µM) is reported as 89%.

As for `Cn1c(N)c(CN2CCN(c3cccc4ccccc34)CC2)c(=O)n1-c1ccccc1` [Example 4, 3-Amino-2-methyl-4-[4-(1-naphthyl)piperazin-1-ylmethyl]-1-phenyl-3-pyrazolin-5-one], the Ki at D2 dopamine receptors is 112 nM; at 5-HT1A receptors, 39 nM; at α1-adrenoceptors, 186 nM; on α2D-adrenoceptors, above 500 nM. Also, the inhibition at 1 µM on α2A-adrenoceptors stood at 82%.

Consider `Cn1nc(-c2ccccc2)c(CN2CCN(c3cccc4c3OCCO4)CC2)c1N` [Example 13, 5-Amino-4-[4-(1,4-benzodioxan-5-yl)piperazin-1-ylmethyl]-1-methyl-3-phenylpyrazole], for which the Ki was above 500 nM at D2 dopamine receptors, 21 nM at 5-HT1A receptors, 57 nM at α1-adrenoceptors and 156 nM on α2D-adrenoceptors. Moreover, at α2A-adrenoceptors, the inhibition at 1 µM turned out to be 95%.
